Patent publication US20190110476A1, “NOVEL ISOTHIAZOLAMIDES, PROCESSES FOR THEIR PREPARATION AND THEIR USE AS FUNGICIDES” (priority 2014, published 2019)
Marks after values point to notes of the source that are not given here.

Assay: Measurement of LogP values by HPLC on reversed phase columns (EEC directive 79/831 Annex V.A8)
Format: physicochemical
Protocol: The abbreviations and numerations of the substituent positions used in the context of the present invention and in the following Tables are explained in detail in the section Examples hereinafter. Also, the LogP values indicated in the following Tables are explained in detail in the section Examples hereinafter. In case LogP values for different diastereoisomers of a specific compound are […], said LogP values are […] by a “+”. […] Measurement of LogP values was performed according to EEC directive 79/831 Annex V.A8 by HPLC (High Performance Liquid Chromatography) on reversed phase columns with the following methods: […] Lambda-max-values were determined using UV-spectra from 200 nm to 400 nm and the peak values of the chromatographic signals

Structure (SMILES)	LogP
COc1ccc(CNc2nsc(C(=O)NC3(C4CCCCC4)CC3)c2Cl)cc1 [I-113]	4.69[a]
COc1ccc(CNC(=O)c2snc(N)c2Cl)cn1 [I-114]	1.23[a]
Nc1nsc(C(=O)NC2CC2)c1Cl [I-115]	0.84[a]
Cc1cc(C)c(CN(C(=O)c2snc(N)c2Cl)C2CC2)c(C)c1 [I-116]	3.46[a]
Cc1cc(C)cc(CN(C(=O)c2snc(N)c2Cl)C2CC2)c1 [I-117]	3.15[a]
CC(C)c1ccccc1CN(C(=O)c1snc(N)c1Cl)C1CC1 [I-118]	3.33[a]
Cc1ccc(C)c(CN(C(=O)c2snc(N)c2Cl)C2CC2)c1 [I-119]	3.04[a]
Nc1nsc(C(=O)NCc2cccc(F)c2F)c1Cl [I-120]	1.91[a]
Nc1nsc(C(=O)NCc2ccc(F)c(F)c2F)c1Cl [I-121]	2.09[a]
Nc1nsc(C(=O)NCc2ccc(Cl)nc2)c1Cl [I-122]	1.31[a]
Cc1ccc(CNC(=O)c2snc(N)c2Cl)c(F)c1F [I-123]	2.26[a]
Nc1nsc(C(=O)NCc2ccccc2C(F)F)c1Cl [I-124]	2.01[a]
Nc1nsc(C(=O)NCc2ccc(F)c(F)c2)c1Cl [I-125]	1.93[a]
COc1ccc(CNC(=O)c2snc(N)c2Cl)c(F)c1 [I-126]	1.88[a]
Cc1ccc(F)cc1CNC(=O)c1snc(N)c1Cl [I-127]	2.08[a]
Nc1nsc(C(=O)NCc2c(F)cccc2F)c1Cl [I-128]	1.81[a]
Nc1nsc(C(=O)NCc2c(F)ccc(F)c2F)c1Cl [I-129]	1.91[a]
Nc1nsc(C(=O)NCc2cc(F)cc(F)c2F)c1Cl [I-130]	2.03[a]
Nc1nsc(C(=O)NCc2cc(F)c(F)c(F)c2)c1Cl [I-131]	2.13[a]
Nc1nsc(C(=O)NCc2c(F)cccc2Cl)c1Cl [I-132]	2.06[a]
Nc1nsc(C(=O)NCc2ccc(C(F)F)cc2)c1Cl [I-133]	1.91[a]
Nc1nsc(C(=O)NCc2c(F)cc(F)cc2F)c1Cl [I-134]	1.96[a]
C#CCOC(=O)N(C(=O)OCC#C)c1nsc(C(=O)N[C@@H](C)C2CCCCC2)c1Cl [I-135]	3.96[a]
COc1ccc(CNC(=O)c2snc(N)c2C)cn1 [I-136]	0.96[a]
C#CCOC(=O)Nc1nsc(C(=O)N[C@@H](C)C2CCCCC2)c1Cl [I-137]	3.17[a]

Structure (SMILES)	LogP
Nc1nsc(C(=O)NCC2(O)CCCCC2)c1Cl [I-138]	1.51[a]
Nc1nsc(C(=O)NCC2CCCC(C(F)(F)F)C2)c1Cl (stereo not drawn) [I-139]	2.66[a]
Nc1nsc(C(=O)NC2CCc3ccccc32)c1Cl (stereo not drawn) [I-140]	2.30[a]
Nc1nsc(C(=O)NCC2CCC(C(F)(F)F)CC2)c1Cl (stereo not drawn) [I-141]	2.71[a]
CC(NC(=O)c1snc(N)c1Cl)c1ccccc1Cl (stereo not drawn) [I-142]	2.46[a]
Nc1nsc(C(=O)NC2(C3CCCCC3)CC2)c1Cl [I-143]	2.82[a]
Cc1ccc(CNC(=O)c2snc(N)c2C)c(F)c1 [I-145]	1.81[a]
Cc1c(N)nsc1C(=O)NCc1c(F)cccc1F [I-146]	1.49[a]
Cc1c(N)nsc1C(=O)NCc1cccc(F)c1F [I-147]	1.64[a]
Cc1c(N)nsc1C(=O)NCc1ccc(F)c(F)c1 [I-149]	1.69[a]
Cc1c(N)nsc1C(=O)NCc1ccc(C#N)cc1F [I-150]	1.35[a]
Cc1cc(C)c(CN(C(=O)c2snc(N)c2Cl)C2CC2)cc1C [I-151]	3.39[a]
Cc1ccc(CN(C(=O)c2snc(N)c2Cl)C2CC2)c(C)c1 [I-152]	3.09[a]
CCc1ccccc1CN(C(=O)c1snc(N)c1Cl)C1CC1 [I-153]	3.04[a]
Cc1cccc(C)c1CN(C(=O)c1snc(N)c1Cl)C1CC1 [I-154]	3.02[a]
Cc1c(N)nsc1C(=O)NCc1ccc(C(F)F)cc1 [I-156]	1.66[a]
Cc1c(N)nsc1C(=O)NCc1ccccc1C(F)F [I-157]	1.74[a]
Cc1c(N)nsc1C(=O)NCc1ccc(Cl)cc1F [I-159]	2.00[a]
O=C(NCc1ncc(C(F)(F)F)cc1Cl)c1cc(N(Cc2ccccc2)Cc2ccccc2)ns1 [I-162]	4.98[a]
Cc1c(CNC(=O)c2snc(N)c2Cl)ccc(F)c1F [I-163]	2.23[a]
Cc1ccc(CNC(=O)c2snc(N)c2Cl)c(F)c1 [I-164]	2.18[a]
Nc1cc(C(=O)NCc2c(F)ccc(F)c2F)sn1 [I-165]	1.51[a]
Nc1cc(C(=O)NCc2ccc(F)c(F)c2)sn1 [I-166]	1.54[a]
CC(=O)Nc1nsc(C(=O)NCC2CCCCC2)c1Cl [I-167]	2.14[a]
O=C(Nc1nsc(C(=O)NCC2CCCCC2)c1Cl)c1ccccc1 [I-168]	3.19[a]

Structure (SMILES)	LogP
CCCC(=O)Nc1nsc(C(=O)NCC2CCCCC2)c1Cl [I-170]	2.84[a]
COc1ccc(CNC(=O)c2cc(N)ns2)c(F)c1 [I-171]	1.48[a]
CC(C)(C)C(=O)Nc1nsc(C(=O)NCC2CCCCC2)c1Cl [I-172]	3.18[a]
Nc1cc(C(=O)NCc2ccc(Cl)cc2F)sn1 [I-179]	1.82[a]
Nc1cc(C(=O)NCc2c(F)cc(F)cc2F)sn1 [I-180]	1.50[a]
Nc1nsc(C(=O)NCc2ccc(Cl)cc2F)c1Cl [I-181]	2.40[a]
Nc1nsc(C(=O)N(Cc2ccccc2)C2CC2)c1Cl [I-183]	2.41[a]
CCc1cccc(C)c1CN(C(=O)c1snc(N)c1Cl)C1CC1 [I-184]	3.35[a]
CS(=O)(=O)N(c1nsc(C(=O)NCc2ccccc2F)c1Cl)S(C)(=O)=O [I-185]	2.80[a]
O=C(NCc1ncc(C(F)(F)F)cc1Cl)c1snc(N(Cc2ccccc2)Cc2ccccc2)c1Br [I-200]	6.06[a]
N#Cc1ccc(CNC(=O)c2snc(N)c2Cl)c(F)c1 [I-202]	1.64[a]
Nc1nsc(C(=O)N(Cc2c(Cl)cccc2Cl)C2CC2)c1Cl [I-208]	3.02[a]
Nc1nsc(C(=O)N(Cc2ccc(Cl)cc2Cl)C2CC2)c1Cl [I-209]	3.37[a]
Nc1nsc(C(=O)N(Cc2c(F)cccc2Cl)C2CC2)c1Cl [I-210]	2.73[a]
Nc1nsc(C(=O)N(Cc2ccc(Cl)cc2Cl)C2CCC2)c1Cl [I-211]	3.85[a]
Nc1nsc(C(=O)N(Cc2ccc(Cl)cc2Cl)CC2CC2)c1Cl [I-212]	3.74[a]
CC(C)N(Cc1ccc(Cl)cc1Cl)C(=O)c1snc(N)c1Cl [I-213]	3.71[a]
CC1(C)CC1N(Cc1ccc(Cl)cc1Cl)C(=O)c1snc(N)c1Cl (stereo not drawn) [I-214]	4.12[a]
Nc1nsc(C(=O)N(Cc2c(Cl)cccc2C(F)(F)F)C2CC2)c1Cl [I-215]	3.19[a]
Nc1nsc(C(=O)N(Cc2cc(Cl)cc(C(F)(F)F)c2)C2CC2)c1Cl [I-216]	3.53[a]
COc1ccc(CNc2nsc(C(=O)NCc3ccc(F)cc3C(F)(F)F)c2Cl)cc1 [I-220]	4.18[a]
COc1ccc(CNc2nsc(C(=O)NCc3ccc(Oc4ccccc4)cc3)c2Cl)cc1 [I-221]	4.41[a]
COc1ccc(CNc2nsc(C(=O)NCc3ccc(Oc4ccc(F)cc4)cc3)c2Cl)cc1 [I-222]	4.44[a]
COc1ccc(CNc2nsc(C(=O)NCc3ccc(F)c(Oc4ccccc4)c3)c2Cl)cc1 [I-223]	4.34[a]
COc1ccc(CNc2nsc(C(=O)NCc3ccc(OC)c(F)c3)c2Cl)cc1 [I-224]	3.44[a]
